Read-outs that look alike come from different tables or passages of the source.
Columns and labels:
HCV replicon 1a Y93H = assay: Cell-based HCV replicon assay (TaqMan), genotype 1a Y93H mutant replicon; settings: Hepatitis C virus, 72 h, read-out: 1a Y93H EC90, HCV 1a Y93H mutant replicon cells, replicon RNA by TaqMan on day 3; EC90 = concentration for ΔCT=3.2 over baseline
Protocol: (§1) Measurement of inhibition by compounds of the present invention was performed using the HCV replicon system. Several different replicons encoding different HCV genotypes or mutations were used. In addition, potency measurements were made using different formats of the replicon assay, including different ways of measurements and different plating formats. See Jan M. Vrolijk et al., A replicons-based bioassay for the measurement of interferons in patients with chronic hepatitis C, 110 J. VIROLOGICAL METHODS 201 (2003); Steven S. Carroll et al., Inhibition of Hepatitis C Virus RNA Replication by 2′-Modified Nucleoside Analogs, 278(14) J. BIOLOGICAL CHEMISTRY 11979 (2003). However, the underlying principles are common to all of these determinations, and are outlined below.
(§2) Compounds of the present invention were assayed for cell-based anti-HCV activity using the following protocol. Replicon cells were seeded at 5000 cells/well in 96-well collagen I-coated Nunc plates in the presence of the test compound. Various concentrations of test compound, typically in 10 serial 2-fold dilutions, were added to the assay mixture, with the starting concentration ranging from 250 μM to 1 μM. The final concentration of DMSO was 0.5%, fetal bovine serum was 5%, in the assay media. Cells were harvested on day 3 by the addition of 1× cell lysis buffer (Ambion cat #8721). The replicon RNA level was measured using real time PCR (TaqMan® assay). The amplicon was located in 5B. The PCR primers were: 5B.2F, ATGGACAGGCGCCCTGA (SEQ. ID NO. 1); 5B.2R, […] (SEQ. ID NO. 2); the probe sequence was FAM-labeled CACGCCATGCGCTGCGG (SEQ. ID NO. 3). GAPDH RNA was used as endogenous control and was amplified in the same reaction as NS5B (multiplex PCR) using primers and VIC-labeled probe recommended by the manufacturer (PE Applied Biosystem). The real-time […] reactions were run on ABI PRISM 7900HT Sequence Detection System using the following program: 48° C. for 30 minutes, 95° C. for 10 minutes, 40 cycles of 95° C. for 15 sec, 60° C. for 1 minute. The ACT values (CT5B-CTGAPDH) were plotted against the concentration of test compound and fitted to the sigmoid dose-response model using XLfit4 (MDL). EC50 was defined as the concentration of inhibitor necessary to achieve ΔCT=1 over the projected baseline; EC90 the concentration necessary to achieve ΔCT=3.2 over the baseline. Alternatively, to quantitate the absolute amount of replicon RNA, a standard curve was established by including serially diluted T7 transcripts of replicon RNA in the Taqman assay. All TaqMan® reagents were from PE Applied Biosystems. Such an assay procedure was described in detail in e.g. Malcolm et al., Antimicrobial Agents and Chemotherapy 50: 1013-1020 (2006).
(§3) HCV replicon EC50 assay data for various replicons and mutants was calculated for selected compounds of the present invention using this method and is provided in the tables above herein.

HCV replicon 1b = assay: Cell-based HCV replicon assay (TaqMan), genotype 1b replicon; settings: HCV 1b replicon cells, replicon RNA by TaqMan on day 3, EC90 = concentration for ΔCT=3.2 over baseline
Protocol: as §1, §2, §3

HCV replicon 1a = assay: Cell-based HCV replicon assay (TaqMan), genotype 1a replicon; settings: HCV 1a replicon cells, replicon RNA by TaqMan on day 3, EC90 = concentration for ΔCT=3.2 over baseline
Protocol: as §1, §2, §3

HCV replicon 2b = assay: Cell-based HCV replicon assay (TaqMan), genotype 2b replicon; settings: EC90 = concentration for ΔCT=3.2 over baseline
Protocol: as §1, §2, §3

[1] = Hepatitis C virus, 72 h, read-out: 2b EC90, HCV 2b replicon cells, replicon RNA by TaqMan on day 3

Row | Compound | EC90 (HCV replicon 1a Y93H) | EC90 (HCV replicon 1b; Hepatitis C virus, 72 h) | EC90 (HCV replicon 1a; Hepatitis C virus, 72 h) | EC90 (HCV replicon 2b; [1]) | EC90 (HCV replicon 1b) | EC90 (HCV replicon 1a) | EC90 (HCV replicon 2b; read-out: 2b EC90, HCV 2b replicon cells, replicon RNA by TaqMan on day 3)
1 | COC(=O)N[C@@H](Cc1c[nH]c2ccccc12)C(=O)N1CCC[C@H]1c1ncc(-c2ccc(-c3ccc(-c4cnc([C@@H]5C[Si](C)(C)CN5C(=O)[C@H](Cc5c[nH]c6ccccc56)NC(=O)OC)[nH]4)cc3)cc2)[nH]1 [Compound 17] | 1000 nM | 1000 nM | 9.36 nM | 1000 nM | – | – | –
2 | COC(=O)N[C@H](Cc1c[nH]c2ccccc12)C(=O)N1CCC[C@H]1c1ncc(-c2ccc(-c3ccc(-c4cnc([C@@H]5C[Si](C)(C)CN5C(=O)[C@@H](Cc5c[nH]c6ccccc56)NC(=O)OC)[nH]4)cc3)cc2)[nH]1 [Compound 16] | 500 nM | 1000 nM | 1000 nM | 1000 nM | – | – | –
3 | CC[C@H](C)[C@H](NC(=O)OC)C(=O)N1CCC[C@H]1c1ncc(-c2ccc(-c3ccc(-c4cnc([C@@H]5C[Si](C)(C)CN5C(=O)[C@@H](NC(=O)OC)[C@@H](C)CC)[nH]4)cc3)cc2)[nH]1 [Compound 14] | 1000 nM | – | – | – | 23.8 nM | 3.22 nM | 1000 nM
4 | COC(=O)N[C@@H](Cc1cn(C)cn1)C(=O)N1CCC[C@H]1c1ncc(-c2ccc(-c3ccc(-c4cnc([C@@H]5C[Si](C)(C)CN5C(=O)[C@H](Cc5cn(C)cn5)NC(=O)OC)[nH]4)cc3)cc2)[nH]1 [Compound 28] | 1000 nM | 282 nM | 11.9 nM | 1000 nM | – | – | –
5 | COC(=O)N[C@@H](C(=O)N1CCC[C@@H]1c1ncc(-c2ccc(-c3ccc(-c4cnc([C@H]5C[Si](C)(C)CN5C(=O)[C@H](NC(=O)OC)C5CCCOCC5)[nH]4)cc3)cc2)[nH]1)C1CCCOCC1 (stereo partly shown) [Compound 21] | 1000 nM | 18.7 nM | 4.42 nM | 204 nM | – | – | –
6 | COC(=O)N[C@@H](C)C(=O)N1C[Si](C)(C)C[C@H]1c1nc(Cl)c(-c2ccc(-c3ccc(-c4[nH]c([C@@H]5C[C@H]6C[C@H]6N5C(=O)[C@H](C)NC(=O)OC)nc4Cl)cc3)cc2)[nH]1 [Compound 52] | 9.5 nM | 0.007 nM | 0.021 nM | 57 nM | – | – | –
7 | CCC[C@H](NC(=O)OC)C(=O)N1CCC[C@H]1c1ncc(-c2ccc(-c3ccc(-c4cnc([C@@H]5C[Si](C)(C)CN5C(=O)[C@H](CCC)NC(=O)OC)[nH]4)cc3)cc2)[nH]1 [Compound 15] | 542 nM | 45.8 nM | 2.43 nM | 515 nM | – | – | –
8 | CCN(CC)[C@@H](C(=O)N1C[Si](C)(C)C[C@H]1c1nc(Cl)c(-c2ccc(-c3ccc(-c4[nH]c([C@@H]5C[C@H]6C[C@H]6N5C(=O)[C@@H](c5ccccc5)N(CC)CC)nc4Cl)cc3)cc2)[nH]1)c1ccccc1 [Compound 55] | 16.4 nM | 0.019 nM | 0.047 nM | 0.16 nM | – | – | –
9 | COC(=O)N[C@H](C(=O)N1CCC[C@H]1c1ncc(-c2ccc(-c3ccc(-c4cnc([C@@H]5C[Si](C)(C)CN5C(=O)[C@@H](NC(=O)OC)C5CCCC5)[nH]4)cc3)cc2)[nH]1)C1CCCC1 [Compound 24] | 1000 nM | 17.3 nM | 2.91 nM | 382 nM | – | – | –
10 | COC(=O)N[C@H](C(=O)N1C[Si](C)(C)C[C@H]1c1ncc(-c2ccc(-c3ccc(-c4cnc([C@@H]5C[C@H]6C[C@H]6N5C(=O)[C@@H](NC(=O)OC)C(C)C)[nH]4)cc3)cc2)[nH]1)C(C)C [Compound 8] | > 100 nM | 0.002 nM | 0.029 nM | 249 nM | – | – | –
11 | COC(=O)N[C@H](C(=O)N1CCC[C@H]1c1ncc(-c2ccc(-c3ccc(-c4cnc([C@@H]5C[Si](C)(C)CN5C(=O)[C@@H](NC(=O)OC)C5CCCCC5)[nH]4)cc3)cc2)[nH]1)C1CCCCC1 [Compound 34] | > 1000 nM | 0.04 nM | 2.5 nM | 648 nM | – | – | –
12 | COC(=O)N[C@@H](Cn1ncnn1)C(=O)N1CCC[C@H]1c1ncc(-c2ccc(-c3ccc(-c4cnc([C@@H]5C[Si](C)(C)CN5C(=O)[C@H](Cn5ncnn5)NC(=O)OC)[nH]4)cc3)cc2)[nH]1 [Compound 27] | 1000 nM | 2.17 nM | 6.11 nM | 138 nM | – | – | –
13 | COC(=O)N[C@@H](Cc1ccccc1)C(=O)N1CCC[C@H]1c1ncc(-c2ccc(-c3ccc(-c4cnc([C@@H]5C[Si](C)(C)CN5C(=O)[C@H](Cc5ccccc5)NC(=O)OC)[nH]4)cc3)cc2)[nH]1 [Compound 13] | 1000 nM | 923 nM | 29.8 nM | 1000 nM | – | – | –
14 | COC(=O)N[C@@H](C)C(=O)N1CCC[C@@H]1c1ncc(-c2ccc(-c3ccc(-c4cnc([C@H]5C[Si](C)(C)CN5C(=O)[C@H](C)NC(=O)OC)[nH]4)cc3)cc2)[nH]1 [Compound 18] | 1000 nM | 1000 nM | 988 nM | 1000 nM | – | – | –
15 | CCS(=O)(=O)N1CCC(NC(=O)c2ccc(-c3ccc(-c4cnc([C@@H]5C[Si](C)(C)CN5C(=O)[C@@H](NC(=O)OC)C(C)C)[nH]4)cc3)cc2)CC1 [Compound 75] | > 1000 nM | 0.028 nM | 159 nM | > 1000 nM | – | – | –
16 | COC(=O)N[C@H](C(=O)N1CCC[C@H]1c1ncc(-c2ccc(-c3ccc(-c4cnc([C@@H]5C[Si](C)(C)CN5C(=O)[C@@H](NC(=O)OC)[C@@H](C)OC)[nH]4)cc3)cc2)[nH]1)[C@@H](C)OC [Compound 25] | 1000 nM | 4.77 nM | 0.72 nM | 136 nM | – | – | –
17 | COC(=O)N[C@H](C(=O)N1C[C@H](F)C[C@H]1c1ncc(-c2ccc(C#Cc3ccc(-c4cnc([C@@H]5C[Si](C)(C)CN5C(=O)[C@@H](NC(=O)OC)C(C)C)[nH]4)cc3)cc2)[nH]1)C(C)C [Compound 58] | > 100 nM | 0.03 nM | > 1 nM | > 100 nM | – | – | –
18 | COC(=O)N[C@H](C(=O)N1CCC[C@@H]1c1ncc(-c2ccc(-c3ccc(-c4cnc([C@H]5C[Si](C)(C)CN5C(=O)[C@@H](NC(=O)OC)c5ccccc5)[nH]4)cc3)cc2)[nH]1)c1ccccc1 [Compound 19] | 1000 nM | 11 nM | 25.5 nM | 999 nM | – | – | –
19 | COC(=O)N[C@H](C(=O)N1CCC[C@H]1C(=O)Nc1n[nH]c2ccc(-c3ccc(-c4cnc([C@@H]5C[Si](C)(C)CN5C(=O)[C@@H](NC(=O)OC)C(C)C)[nH]4)cc3)cc12)C(C)C [Compound 79] | > 100 nM | > 1 nM | > 1 nM | > 100 nM | – | – | –
